Measured values as given in US20240156971A1, “METHODS AND SORTILIN BINDING CONJUGATE COMPOUNDS FOR TARGETING CANCER STEM CELLS” (TRANSFERT PLUS, SOCIÉTÉ EN COMMANDITE, priority 2021, published 2024).
Square brackets hold non-standard residues; d marks the D form. Ends that are not written are not given here. Nle = CCCC[C@H](N)C(=O)O

Assays:
[1] = test system: hBCSCs; test: Cell cycle analysis (G2/M) of hBCSCs; type: cell-based, human; conditions: 2 h with 4 μM docetaxel or 2 μM TH1902, then 22 h or 48 h
Experimental: Cell Cycle Analysis Following Treatment of hBCSC by Test Articles. hBCSCs (2.8×10^5 cells/well) and MDA-MB-231/luc cells (2.3×10^5 cells/well) were seeded in 6-well plates one day prior to treatment. To test the effects of Docetaxel and TH1902 on cell cycle phases, hBCSCs and MDA-MB-231/luc cells were treated for 2 hours in serum-free media with vehicle (DMSO), 4 μM docetaxel or 2 μM TH1902 (equimolar of docetaxel), rinsed with complete media and incubated in fresh complete media for 22 and 48 hours. For the experiments with the P-gp inhibitors, hBCSCs were first pre-treated for 30 minutes in serum-free media with vehicle (DMSO), or 10 μM cyclosporine A or PSC-833 (P-gp inhibitors). Next, cells were treated for 2 hours with 4 μM docetaxel or 2 μM TH1902 in the continued presence or absence of the P-gp inhibitors before being rinsed and incubated in fresh complete media in the continued presence or absence of the P-gp inhibitors. Cells were then incubated for 22 and 48 hours. In both assays, following the incubation, cells were detached with trypsin, fixed with ice-cold 70% EtOH and kept overnight at 4° C. Cells were washed once with PBS, after which they were stained for 30 minutes at room temperature with FxCycle™ PI/RNase Staining Solution (Thermo Scientific, Waltham, MA; #F10797). Cells were finally subjected to cell cycle analysis using a BD Accuri™ C6 flow cytometer.

[2] = test system: hBCSCs; test: hBCSC apoptosis by flow cytometry (annexin V-FITC/PI); type: cell-based, human; conditions: 2 h treatment, 4 μM docetaxel or 2 μM TH1902; 22 h, 48 h, 72 h post-treatment
Experimental: Assessment of hBCSC Apoptosis by Flow Cytometry. AnnexinV/PI staining was performed using an Apoptosis Detection Kit (BD Pharmingen, Mississauga ON) according to the manufacturer's instructions. Briefly, hBCSCs (1.3×10^5 cells/well) were seeded for 24 hours in 12-well plates. Cells were treated in serum-deprived medium for 2 hours with vehicle (DMSO), 4 μM Docetaxel or 2 μM TH1902. Cells were washed with complete medium and incubated in fresh complete medium for 22, 48, and 72 hours. Cells were finally harvested, resuspended in a staining solution of 100 μl of 1×binding buffer containing 5 μL of annexinV-FITC and 5 μL of PI. Cells were incubated for 15 minutes at room temperature in the dark before analysis by flow cytometry. The extent of apoptosis was measured, then analyzed using BD Accuri™ C6 software.

[3] = test system: pancreatic CSCs; test: Growth of tumors originating from pancreatic CSCs in mice; type: in vivo; conditions: TH1902 at doses equivalent to 1, 1.25 or 1.5 the MTD of docetaxel; docetaxel 15 mg/kg (MTD)
Text: (§1) In vivo Assessment of Docetaxel and TH1902 Anti-Tumor Efficacy. Tumor xenografts were established by subcutaneous inoculation of 10^3 hBCSC cells, hOvCSC and hPCSC resuspended in […] of HBSS containing 50% Matrigel™, into the right flank of NCG triple immunodeficient female mice (Charles River, Saint-Constant QC) under light isoflurane anesthesia. Three days following implantation of either hBCSC or hOvCSCS, mice commenced receiving weekly treatment by intravenous bolus injections of vehicle (10% polysorbate-80, 5% dextrose, 0.04% formic acid pH 4.3), docetaxel (15 mg/kg (the MTD for this agent) or 3.75 mg/kg (¼ MTD for this agent), dissolved in 5% dextrose, 3.3% ethanol, 1.7% Tween™-80) or TH1902 (35 mg/kg or 8.75 mg/kg) dissolved in vehicle. Note that the two TH1902 and docetaxel concentrations contain equimolar amounts of docetaxel due to the two docetaxel moieties per TH1902 molecule. Tumor growth was measured using two-dimensional measurements taken with an electronic caliper, and tumor volume was calculated according to the following formula: tumor volume (mm^3)=π/6×length×width^2. Animal weights were measured three times per week with a precision of 10 mg.

[4] = test system: hBCSCs; test: Scratch (wound-healing) assay of hBCSC migration; type: cell-based, human; conditions: 2 h treatment, 2 μM docetaxel or 1 μM TH1902; images at 24 and 48 h
Experimental: Inhibition of hBCSC Migration by Test Articles. Cell migration experiments were carried out using the scratch (wound-healing) assay. Cells (2.8×10^5 cells /well) were plated in 6-well plates for 24 hours and then scratched using a sterile p200 pipette tip. Cells were washed with serum-free medium to remove the detached cells, then treated for 2 hours with serum-free medium containing vehicle (DMSO), 2 μM Docetaxel, or 1 μM TH1902. Cells were rinsed with complete media and incubated for 48 hours in a fresh complete media. Images were acquired, at 0, 24 and 48 hours after scratching, with an inverted microscope.

[5] = type: in vivo, mice
Text: as §1

[6] = test system: ovarian hOCSC xenografts; test: hOCSC xenografts treated with single agents or combined with carboplatin; type: in vivo, mice; conditions: for inhibition of tumor growth, single agent: docetaxel 10 mg/kg, TH1902 23 mg/kg, paclitaxel 10 mg/kg, carboplatin 40 mg/kg, day 18
Experimental: Mice bearing ovarian hOCSC xenografts were treated with vehicle, docetaxel, paclitaxel, TH1902 or carboplatin, and other groups of mice were administered carboplatin in combination with either docetaxel, paclitaxel or TH1902. To minimize the risk of side effects resulting from combining treatments, the dosages used for each drug were reduced to the following: docetaxel 10 mg/kg; TH1902 23 mg/kg (equivalent to the docetaxel dosage); paclitaxel 10 mg/kg; carboplatin 40 mg/kg (unchanged).

[7] = test system: hOvCSC xenografts; test: Growth of hOvCSC xenografts in mice; type: in vivo; conditions: weekly i.v.; TH1902 at doses equivalent to 1, 1.25 or 1.5 the MTD of docetaxel; docetaxel 15 mg/kg (MTD)
Text: as §1, with “[…])” for “1.7% Tween™-80) or TH1902 (35 mg/kg or 8.75 mg/kg)”, “Note that the two TH1902 and docetaxel concentrations contain equimolar amounts of docetaxel due to the two docetaxel moieties per TH1902 molecule.” left out

| Molecule | G2/M cell cycle arrest [1] | total apoptosis [2] | growth of tumors originating from pancreatic CSCs [3] | recolonization of scratched region by hBCSCs (migration) [4] | weight loss ([5]; mouse, in vivo) | inhibition of tumor growth, single agent [6] | growth of tumors originating from ovarian CSCs [7] | effect on animals' weight ([5]; FIGS. 8C, 9C and 10C) | inhibition of tumor growth, combined with carboplatin ([6]; plus carboplatin 40 mg/kg intraperitoneal, vs the agent alone) |
| --- | --- | --- | --- | --- | --- | --- | --- | --- | --- |
| CC(=O)O[C@@]12CO[C@@H]1C[C@H](O)[C@@]1(C)C(=O)[C@H](O)C3=C(C)[C@@H](OC(=O)[C@H](O)[C@@H](NC(=O)OC(C)(C)C)c4ccccc4)C[C@@](O)([C@@H](OC(=O)c4ccccc4)[C@H]21)C3(C)C [docetaxel, reference compound] | not | indistinguishable from that seen in control cells | no significant reduction of tumor growth | completely recolonized | 5-10% | clearly inferior to that of TH1902 | no significant reduction of tumor growth |  |  |
| Acetyl-GVRAK(docetaxel)AGVRN(Nle)FK(docetaxel)SESY (Ac-GVRAK(docetaxel)AGVRN[Nle]FK(docetaxel)SESY) [TH1902] | significant increase in G2/M cell cycle arrest | large increase in apoptosis | significant inhibition of the growth of tumors | remained virtually barren of hBCSC for at least 48 hours |  | much greater than that of either taxanes | significant inhibition of the growth of tumors | no or minimal effect | slightly increased |
